Data on ten compounds can be found in US9040691B2, “Hydroxymethylaryl-substituted pyrrolotriazines as ALK1 inhibitors” (BAYER INTELLECTUAL PROPERTY GMBH, priority 2011, dated 2015).

The target in assay [1] is ALK1 kinase (Homo sapiens (Human), UniProt P37023). Nature of the assay: In vitro enzyme inhibition using scintillation of incorporated radio label (flashplate assay). The format is biochemical. As to conditions: biotinylated α-casein, 33P-ATP, 500 nM ATP.
The subject of assay [2] is hSmad7 mRNA in BMP9-stimulated HUVEC. Nature of the assay: Smad7 target gene induction: HUVEC cell assay and TaqMan expression analysis. It counts as cell-based, human. The note with it: Homo sapiens, 3 h, 1 ng/ml BMP9 for 3 h, Smad7 mRNA by TaqMan. As to the method:
B-2b. Smad7 Target Gene Induction: HUVEC Cell Assay and TaqMan Expression Analysis
The in vitro potency of ALK1 inhibitors was tested in a cell-based assay. Bone morphogenetic protein 9 (BMP9) induces Smad7 mRNA expression in human vascular endothelial cells (HUVEC) via activation of ALK1.
1.5×10^4 passage 2 HUVECs (Lonza, Basel, Switzerland) per well were seeded in a 96-well plate in EBM-2 medium containing EGM-2 additives and growth factors (Lonza, CC-3156 and CC-4176). After 4 h, the medium was changed to EBM-2 with 0.2% fetal calf serum (FCS) and the cells were starved for 20 h in a humidified incubator at 37° C., 5% CO2. Test compounds were added at 11 different concentrations between 0 and 10 000 nM one hour prior to stimulation of the cells for 3 h with recombinant human BMP9 protein at 1 ng/ml (dissolved in 4 mM hydrochloric acid, 0.1% BSA at 10 μg/ml; R&D Systems, Minneapolis, Minn., USA, 3209BP). Medium was removed, and the cells were lysed in 100 μl RLT buffer (Qiagen, Hilden, Germany). RNA was isolated using the Qiagen RNeasy 96 Kit (order-No. 74182) according to manufacturer's instructions and eluted from the columns with 65 μl RNAse-free water. Reverse transcription for quantitative RT-PCR was carried out with the Omniscript Kit (Qiagen, 205113) in RNAse-free 96-well round-bottom plates. Per well, 6.8 μl of a reaction master mix containing 2 μl 10×RT-buffer, 2 μl dNTPs (5 mM each), 1.6 μl random primer N6 (125 μM), 0.25 μl Rnase Out (40 U/μl) and 1 μl Omniscript Reverse Transcriptase were added. After addition of 13.2 μl of the RNA/water mixture, plate contents were mixed, incubated for 1 h at 37° C. and the total volume adjusted to 100 μl in each well by addition of 80 μl RNAse-free water.
The quantification of human Smad7 mRNA was carried out on a TaqMan using the Eurogentec qPCR Mastermix Plus (RT-QP2X-03-075+; Cologne, Germany) and employing human L32 as housekeeping reference mRNA. Per qPCR reaction, 2.8 μl primer mix, 10 μl master mix, 2.2 μl water and 5 μl cDNA were added. Thermal cycling parameters were 2 min at 50° C., followed by 10 min at 95° C., followed by 40 cycles of melting at 95° C. for 15 sec and annealing/extending at 60° C. for 1 min.
Smad7 mRNA levels induced by 1 ng/ml BMP9 without the addition of any inhibitor were set at 100% induction, and % inhibition was calculated for each test compound with this value. For each test compound, every value was determined in quadruplicate. The IC50 values were determined using Microsoft Excel. The fitting method used was a weighted, unconstrained ML-fit.
For orientation: Quantitative PCR measures a nucleic acid by following its amplification.

Sequence of ALK1 kinase (P37023 22-503): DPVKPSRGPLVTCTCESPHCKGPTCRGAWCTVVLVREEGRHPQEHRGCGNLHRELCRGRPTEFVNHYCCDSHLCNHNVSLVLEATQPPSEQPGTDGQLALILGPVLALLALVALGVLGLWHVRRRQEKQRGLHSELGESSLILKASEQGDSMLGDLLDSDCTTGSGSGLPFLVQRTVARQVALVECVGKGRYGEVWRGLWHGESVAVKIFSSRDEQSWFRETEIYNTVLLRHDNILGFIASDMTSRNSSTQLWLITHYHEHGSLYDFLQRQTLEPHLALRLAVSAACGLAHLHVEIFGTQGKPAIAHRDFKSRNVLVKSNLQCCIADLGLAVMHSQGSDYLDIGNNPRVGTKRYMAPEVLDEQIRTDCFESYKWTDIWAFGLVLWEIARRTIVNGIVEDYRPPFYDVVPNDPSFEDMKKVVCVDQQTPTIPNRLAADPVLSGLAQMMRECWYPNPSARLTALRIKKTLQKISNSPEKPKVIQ

A word on the IC50: it is the concentration at which inhibition is half-maximal. Read a low IC50 as greater potency. On to `CCCc1cc(-c2ccc(CO)cc2)c2c(N)ncnn12` [Example 1, [4-(4-Amino-7-propylpyrrolo[2,1-f][1,2,4]triazin-5-yl)phenyl]methanol], for which the IC50 is 2 nM in assay [1] and 94 nM in assay [2].

Regarding `CCCc1cc(-c2cc(F)c(CO)c(F)c2)c2c(N)ncnn12` [Example 2, [4-(4-Amino-7-propylpyrrolo[2,1-f][1,2,4]triazin-5-yl)-2,6-difluorophenyl]methanol], the IC50 came out at 2.8 nM in assay [1] and 160 nM in assay [2].

For the compound `Nc1ncnn2c(CCCO)cc(-c3ccc(CO)cc3)c12` [Example 3, 3-{4-Amino-5-[4-(hydroxymethyl)phenyl]pyrrolo[2,1-f][1,2,4]triazin-7-yl}propan-1-ol], the IC50 in assay [1] stood at 4 nM; in assay [2] it was 120 nM.

Take `Nc1ncnn2c(C(O)C3CC3)cc(-c3cc(F)c(CO)c(F)c3)c12` (centres unmarked) [Example 5, {4-Amino-5-[3,5-difluoro-4-(hydroxymethyl)phenyl]pyrrolo[2,1-f][1,2,4]triazin-7-yl}(cyclopropyl)methanol]: the IC50 in assay [1] is 1.3 nM; in assay [2], 290 nM.

In the case of `Nc1ncnn2c1c(-c1cc(F)c(CO)c(F)c1)cc2[C@H]1CC[C@H](O)CC1` [Example 7, trans-4-[4-Amino-5-[3,5-difluoro-4-(hydroxymethyl)phenyl]pyrrolo[2,1-f][1,2,4]triazin-7-yl]-cyclohexanol], the figures for the IC50 in assay [1] and in assay [2] were 2 nM and 140 nM, respectively.

Regarding `Nc1ncnn2c([C@@H]3CCCNC3)cc(-c3cc(F)c(CO)c(F)c3)c12` [Example 11, (4-{4-Amino-7-[(3R)-piperidin-3-yl]pyrrolo[2,1-f][1,2,4]triazin-5-yl}-2,6-difluorophenyl)methanol], the figures for the IC50 in assay [1] and in assay [2] were 1.9 nM and 180 nM, respectively.

Take `Nc1nc(-c2cc(-c3ccc(CO)cc3)c3c(N)ncnn23)cs1` [Example 17, {4-[4-Amino-7-(2-amino-1,3-thiazol-4-yl)pyrrolo[2,1-f][1,2,4]triazin-5-yl]phenyl}methanol]: the IC50 in assay [1] was determined as 2 nM; in assay [2], 290 nM.

`Nc1ncnn2c(CN3CCOCC3)cc(-c3cc(F)c(CO)c(F)c3)c12` [Example 20, {4-[4-Amino-7-(morpholin-4-ylmethyl)pyrrolo[2,1-f][1,2,4]triazin-5-yl]-2,6-difluorophenyl}-methanol]: the IC50 was 30 nM in assay [1] and 5900 nM in assay [2].

Regarding `Nc1ncnn2c(CN3CCOCC3)cc(-c3ccc(CO)c(F)c3)c12` [Example 21, {4-[4-Amino-7-(morpholin-4-ylmethyl)pyrrolo[2,1-f][1,2,4]triazin-5-yl]-2-fluorophenyl}methanol], the IC50 in assay [1] turned out to be 25 nM; in assay [2] it was 790 nM.

On to `Nc1ncnn2c(CN3CCOCC3)cc(-c3ccc(CO)c(Cl)c3)c12` [Example 22, {4-[4-Amino-7-(morpholin-4-ylmethyl)pyrrolo[2,1-f][1,2,4]triazin-5-yl]-2-chlorophenyl}methanol], for which the IC50 in assay [1] was determined as 17 nM; in assay [2], 3100 nM.
